This note sets out measurements from patent US20160326098A1, “Pharmaceutically Active Compound for Use as Anti-inflammatory Agent” (Pax Forschung GmbH, priority 2013, published 2016).

The subject of one data set is gastric mucosa. In words: Macroscopic analysis (score) of gastric mucosa damage, mice. The data set is classed as in vivo. The conditions noted are these: 1.11 mmol/kg, vs groups A and C, FIG. 10. As for the experimental part:
(§1) First experiments regarding the effect of the compound of formula (I) and a pharmaceutical composition comprising the compound of formula (I) (clear aqueous solution of compound of formula (I) at pH 4.8), respectively, on gastric injury without inflammation were conducted on mice. 48 animals were randomly allocated into three groups. Group A (n=16) served as sham-operated controls. Samples of all animals were drawn on day 1 of the clinical tests. On day 2 the animals of group B (n=16) were force-fed acetylsalicylic acid (ASS) (1.11 mmol/kg body weight). Group C (n=16) was force-fed 1.11 mmol/kg body weight of the compound according to the invention. Group A only received the respective solvent (25% ethanol in water). One day after the gavage, additional samples were drawn. Fluorescence confocal endomicroscopy was performed to examine the microvasculature and morphologic changes of the mucosa of the distal colon, and full-thickness tissue samples and venous blood samples were taken to determine the biochemical changes in the colon and plasma. The effects were determined by way of measurement of body weight, blood gas analysation and biopsy. […]
The average of the three criteria is calculated for the animals of each group, wherein “0” means for criteria 1 small or no bleeding area, for criteria 2 no bleeding area and for criteria 3 no ulcer. […]

Data set [1] has as its system nitrite/nitrate (NOx). In words: Tissue nitrite/nitrate level, mice with gastric injury without inflammation. The data set is classed as in vivo. The following applies: gastric and duodenal tissue, 1.11 mmol/kg, vs control group A and group C, FIGS. 7a/7b. The method, then: […] This assay depends on the reduction of nitrate to nitrite, which is then converted into a colored azo dye compound that is detected spectrophotometrically at 540 nm.
as §1

Data set [2] deals with nitrite/nitrate (NOx). In words: Nitrite/nitrate level, colitis animals, comparison with GM-20 (FIG. 35). The conditions noted are these: 1.11 mmol/kg body weight, vs sham control group P. It is filed as in vivo, rats. The method, then:
The levels of plasma nitrite/nitrate (NOx), stable end products of NO were measured by the Griess reaction. This assay depends on the reduction of nitrate to nitrite, which is then converted into a colored azo dye compound that is detected spectrophotometrically at 540 nm.
The above-described clinical studies were repeated with animals having colitis which was induced as described above. 20 animals (rats) were randomly divided into four groups, wherein group L served as sham-operated control, having no colitis, group M served as second control having colitis but receiving no further treatment, group N having colitis and being treated with 1.11 mmol/kg body weight of ASS and group O having colitis and being treated with 1.11 mmol/kg of the compound according to the invention. One day after the animals received the enema with TNBS (40 mg/kg i.c.), wherein the animals of group L only received the respective solvent, the animals of group N and O were treated with ASS and the compound according to the invention, respectively. The other animals only received the respective solvent again. Two days after the enema the effects of the treatment were determined by measurement of body weight, blood gas analysis and biopsy. […] Surgery was performed to allow registration of the hemodynamic parameters at 1 h intervals for 6 h (cardiac output [CO] data were measured only at the end of the experiments). […] In addition, fluorescence confocal endomicroscopy was performed to examine the microvasculature and morphologic changes of the mucosa of the distal colon, and full-thickness tissue samples and venous blood samples were taken to determine the biochemical changes in the colon and plasma.
The tests were conducted according to the above described protocol. […] Comparative compound GM-20 is described in the state of the art as being suitable for the therapeutic treatment pathologic disorders characterized by degranulation of the mast cells caused by immunogenic hyperstimulation (see U.S. Pat. No. 5,506,224) The nitrite/nitrate level was measured as described above.

In data set [3] the test system is collagen-induced arthritis (CIA). Kind of data set: Collagen-induced arthritis (CIA), thermal stimulation (inflammatory hyperalgesia). The data set is classed as in vivo. The following applies: mice with CIA, 1.11 mmol/kg force-fed, vs untreated arthritis group 2, FIG. 37. The method, then:
Further clinical studies were performed with animals having collagen-induced arthritis (CIA). In these studies, mice were used as test animals. At the age of eight weeks, the animals were immunized intradermally at the base of the tail with 50 μl of bovine collagen II emulsified in 50 μl of complete Freund's adjuvant. A second booster immunization was performed 3 weeks later, when 50 μl of incomplete Freund's adjuvant was administered with or without the same volume of collagen H. The animals were randomly allocated into experimental groups wherein group 1 served as control, having no arthritis, group 2 served as second control having arthritis, but receiving no further treatment, and group 3 having arthritis and being treated with compound according to the invention. The animals of group 3 were force-fed 1.11 mmol/kg body weight of the compound according to the invention from the first immunization until the end of the experiments. The severity of CIA was evaluated using a clinical scoring system; inflammatory hyperalgesia was detected with thermal stimulation.
The animals were acclimatized to the experimental conditions for 1 hour preceding the test. Then they were placed onto a heating plate set to 40° C. to assess their thermal hypersensitivity. […]

A short description of data set [4]: Haematocrit in blood, rats with TNBS-induced colitis. The data set is classed as in vivo. The conditions noted are these: 1.11 mmol/kg, vs groups L and M, FIG. 28. The method, then: Colonic inflammation was induced by intracolonic administration of TNBS (2,4,6-trinitrobenzenesulfonic acid) (40 mg/kg in 0.25 ml of 25% aqueous ethanol) through an 8-cm-long soft plastic catheter under transient diethylether anesthesia. In the sham-operated groups, only the vehicle for TNBS was administered. The animals were deprived of food, but not water, for 12 h before the enemas.
The above-described clinical studies were repeated with animals having colitis which was induced as described above. […] Two days after the enema the effects of the treatment were determined by measurement of body weight, blood gas analysis and biopsy. […] Surgery was performed to allow registration of the hemodynamic parameters at 1 h intervals for 6 h (cardiac output [CO] data were measured only at the end of the experiments). […] In addition, fluorescence confocal endomicroscopy was performed to examine the microvasculature and morphologic changes of the mucosa of the distal colon, and full-thickness tissue samples and venous blood samples were taken to determine the biochemical changes in the colon and plasma.

For `CC(=O)Oc1ccccc1C(=O)O` [ASS, acetylsalicylic acid, reference compound], the “macroscopic analysis of the mucosa (score)” value in the data set on gastric mucosa is given as “significant damage of the mucosa”. Moreover, the nitrite/nitrate level entry with nitrite/nitrate (NOx) [1] was “significant difference in the nitrite/nitrate level”; in the data set with nitrite/nitrate (NOx) [2], “increased nitrite/nitrate level”.

Turning to `CC(=O)Oc1ccccc1C(=O)NC(CO)(CO)CO` [compound according to the invention], the “thermosensitivity (thermal stimulation score, 40° C. heating plate)” value in data set [3] is listed as “significantly lower thermosensitivity”. For the same molecule, in data set [4], the “haematocrit level in the blood” value is “slightly higher”. Also, the nitrite/nitrate level entry with nitrite/nitrate (NOx) [2] is on record as “did not lead to an increase in the nitrite/nitrate level”.
